What was measured:
Format in all cases: cell-based
[1] = system: Resistant Enterococcus faecium and faecalis; experiment: MIC, standard broth micro-dilution assay, Resistant; conditions: geometric mean of 4-6 isolates
Description: (§1) The antibacterial efficacy of the present compounds is illustrated by Table III. The minimal inhibitory concentrations (MICs) were determined using a standard broth micro-dilution assay.

[2] = system: Sensitive Enterococcus faecium and faecalis; experiment: MIC, standard broth micro-dilution assay, Sensitive; conditions: geometric mean of 4-6 isolates
Description: as §1

[3] = system: Staphylococcus aureus 446; experiment: MIC, standard broth micro-dilution assay, SA 446
Description: as §1

[4] = system: Staphylococcus aureus 489; experiment: MIC, standard broth micro-dilution assay, SA 489
Description: as §1

[5] = system: Staphylococcus aureus 447; experiment: MIC, standard broth micro-dilution assay, SA 447
Description: as §1

[6] = system: Staphylococcus aureus X400; experiment: MIC, standard broth micro-dilution assay, SA X400
Description: as §1

[7] = system: Staphylococcus aureus X778; experiment: MIC, standard broth micro-dilution assay, SA X778
Description: as §1

[8] = system: Staphylococcus aureus 491; experiment: MIC, standard broth micro-dilution assay, SA 491
Description: as §1

[9] = system: Staphylococcus aureus S13E
Description: as §1

[10] = system: Staphylococcus aureus SA1199; experiment: MIC, standard broth micro-dilution assay, SA 1199
Description: as §1

[11] = system: Staphylococcus aureus SA1199A; experiment: MIC, standard broth micro-dilution assay, SA 1199A
Description: as §1

[12] = system: Staphylococcus haemolyticus 105; experiment: MIC, standard broth micro-dilution assay, SH 105
Description: as §1

[13] = system: Staphylococcus haemolyticus 415; experiment: MIC, standard broth micro-dilution assay, SH 415
Description: as §1

[14] = system: Staphylococcus epidermidis 270; experiment: MIC, standard broth micro-dilution assay, SE 270
Description: as §1

Enterococcus faecium 180 = experiment: MIC, standard broth micro-dilution assay, EF 180
Description: as §1

[15] = system: Enterococcus faecium 180-1; experiment: MIC, standard broth micro-dilution assay, EF 180-1
Description: as §1

[16] = system: Enterococcus faecalis 2041; experiment: MIC, standard broth micro-dilution assay, EF 2041
Description: as §1

[17] = system: Enterococcus faecalis 276; experiment: MIC, standard broth micro-dilution assay, EF 276
Description: as §1

[18] = system: Enterococcus gallinarum 245; experiment: MIC, standard broth micro-dilution assay, EG 245
Description: as §1

[19] = system: Haemophilus influenzae RD; experiment: MIC, standard broth micro-dilution assay, HFRD
Description: as §1

Escherichia coli EC14 = experiment: MIC, standard broth micro-dilution assay, EC 14
Description: as §1

SMILES | minimal inhibitory concentration (MIC), Resistant [1] | minimal inhibitory concentration (MIC), Sensitive [2] | minimal inhibitory concentration (MIC), SA 446 [3] | minimal inhibitory concentration (MIC), SA 489 [4] | minimal inhibitory concentration (MIC), SA 447 [5] | minimal inhibitory concentration (MIC), SA X400 [6] | minimal inhibitory concentration (MIC), SA X778 [7] | minimal inhibitory concentration (MIC), SA 491 [8] | minimal inhibitory concentration (MIC), SA S13E [9] | minimal inhibitory concentration (MIC), SA 1199 [10] | minimal inhibitory concentration (MIC), SA 1199A [11] | minimal inhibitory concentration (MIC), SH 105 [12] | minimal inhibitory concentration (MIC), SH 415 [13] | minimal inhibitory concentration (MIC), SE 270 [14] | minimal inhibitory concentration (MIC), EF 180 (Enterococcus faecium 180) | minimal inhibitory concentration (MIC), EF 180-1 [15] | minimal inhibitory concentration (MIC), EF 2041 [16] | minimal inhibitory concentration (MIC), EF 276 [17] | minimal inhibitory concentration (MIC), EG 245 [18] | minimal inhibitory concentration (MIC), HFRD [19] | other results
CC1OC(OC2c3ccc(c(Cl)c3)Oc3cc4cc(c3OC3OC(CO)C(O)C(O)C3OC3CC(C)(NCc5ccc(-c6ccccc6)cc5)C(O)C(C)O3)Oc3ccc(cc3Cl)C(O)C(NC(=O)C3CCCN3C(=O)OC(C)(C)C)C(=O)NC(CC(N)=O)C(=O)NC4C(=O)NC3C(=O)NC2C(=O)NC(C(=O)O)c2cc(O)cc(O)c2-c2cc3ccc2O)CC(C)(N)C1O [Example 26, N^1-(N-BOC-D-proline) derivative of N^DISACCC-(p-phenylbenzyl)desleucylA82846B] | 23 | 0.76 | 2 | 0.5 | 1 | 0.5 | 0.5 | ≦.06 | 1 | 1 | 0.125 | 1 | 2 | 0.25 | 4 | ≦.06 | 0.25 | 1 | 0.5 | >64 | minimal inhibitory concentration (MIC), EC 14 (Escherichia coli EC14): >64
CC(C)C[C@@H](N)C(=O)N[C@H]1C(=O)N[C@@H](CC(N)=O)C(=O)N[C@H]2C(=O)N[C@H]3C(=O)NC(C(=O)N[C@H](C(=O)O)c4cc(O)cc(O)c4-c4cc3ccc4O)[C@H](OC3CC(C)(N)C(O)C(C)O3)c3ccc(c(Cl)c3)Oc3cc2cc(c3OC2OC(CO)C(O)C(O)C2OC2CC(C)(N)C(O)C(C)O2)Oc2ccc(cc2Cl)[C@H]1O (stereo partly drawn) [Example 17, N^1-D-leucine derivative of desleucylA82846B] | >32 | 0.5 | 0.5 | 0.06 | 0.5 | 0.06 | 0.06 | 0.125 | 0.25 | 0.25 | ≦.06 | 0.5 | 1 | 0.25 | 1 | ≦.06 | ≦.06 | 0.06 | 0.06 | 32 | minimal inhibitory concentration (MIC), EC 14 (Escherichia coli EC14): >64
CC1OC(OC2c3ccc(c(Cl)c3)Oc3cc4cc(c3OC3OC(CO)C(O)C(O)C3OC3CC(C)(NCc5ccc(-c6ccccc6)cc5)C(O)C(C)O3)Oc3ccc(cc3Cl)C(O)C(NC(=O)C(CCCCNC(=O)OC(C)(C)C)NC(=O)OC(C)(C)C)C(=O)NC(CC(N)=O)C(=O)NC4C(=O)NC3C(=O)NC2C(=O)NC(C(=O)O)c2cc(O)cc(O)c2-c2cc3ccc2O)CC(C)(N)C1O [Example 19, N^1-(N^1N′-DIBOC-D-lysine) derivative of N^DISACC-(p-phenylbenzyl)desleucylA82846B] | 64 | 2.6 | 2 | 1 | 2 | 2 | 2 | 1 | 2 | 2 | no growth | 4 | 4 | 2 | 8 | 1 | 0.5 | 2 | 2 | >64 | minimal inhibitory concentration (MIC), EC 14 (Escherichia coli EC14): >64
CC1OC(OC2c3ccc(c(Cl)c3)Oc3cc4cc(c3OC3OC(CO)C(O)C(O)C3OC3CC(C)(NCc5ccc(-c6ccccc6)cc5)C(O)C(C)O3)Oc3ccc(cc3Cl)C(O)C(NC(=O)C3CCCN3C(=O)OC(C)(C)C)C(=O)NC(CC(N)=O)C(=O)NC4C(=O)NC3C(=O)NC2C(=O)NC(C(=O)O)c2cc(O)cc(O)c2-c2cc3ccc2O)CC(C)(N)C1O [Example 29, N^1-(N-BOC-L-proline) derivative of N^DISACC-(p-phenylbenzyl)desleucylA82846B] | 27 | 1.2 | 2 | 0.25 | 0.5 | 0.25 | 0.125 | ≦.06 | 0.5 | 0.125 | ≦.06 | 0.125 | 0.5 | ≦.06 | 4 | ≦.06 | 0.125 | 0.25 | 2 | >64 | minimal inhibitory concentration (MIC), EC 14 (Escherichia coli EC14): >64
CCCCCCNC(CC(C)C)C(=O)NC1C(=O)NC(CC(N)=O)C(=O)NC2C(=O)NC3C(=O)NC(C(=O)NC(C(=O)O)c4cc(O)cc(O)c4-c4cc3ccc4O)C(OC3CC(C)(N)C(O)C(C)O3)c3ccc(c(Cl)c3)Oc3cc2cc(c3OC2OC(CO)C(O)C(O)C2OC2CC(C)(N)C(O)C(C)O2)Oc2ccc(cc2Cl)C1O [Example 39, N^1-(N-n-hexyl-D-leucine) derivative of desleucylA82846B] | 45 | 0.38 | ≦.06 | ≦.06 | 0.5 | ≦.06 | ≦.06 | ≦.06 | 0.125 | 0.125 | ≦.06 | 0.5 | 2 | 0.25 | 2 | no growth | ≦.06 | ≦.06 | 0.5 | no | minimal inhibitory concentration (MIC), EC 14 (Escherichia coli EC14): >64
CC(C)CCC(=O)N[C@H]1C(=O)N[C@@H](CC(N)=O)C(=O)N[C@H]2C(=O)N[C@H]3C(=O)NC(C(=O)N[C@H](C(=O)O)c4cc(O)cc(O)c4-c4cc3ccc4O)[C@H](OC3CC(C)(N)C(O)C(C)O3)c3ccc(c(Cl)c3)Oc3cc2cc(c3OC2OC(CO)C(O)C(O)C2OC2CC(C)(N)C(O)C(C)O2)Oc2ccc(cc2Cl)[C@H]1O (stereo partly drawn) [Example 4, N^1-(4-methyl-n-pentanoyl)desleucylA82846B] | >128 | 4 | 1 | 0.5 | 1 | 0.25 | 0.5 | 0.125 | 0.5 | 0.5 | 0.5 | 0.25 | 16 | 0.5 | >64 | 0.5 | 1 | 0.5 | 4 | >64 | minimal inhibitory concentration (MIC), EC 14 (Escherichia coli EC14): >64
